In patent US11230535B2, “CFTR regulators and methods of use thereof” (THE REGENTS OF THE UNIVERSITY OF CALIFORNIA, priority 2015, dated 2022):
Entries after “also recorded” stand apart in the source; their conditions may differ.

Legend:
[1] = tested on: rat liver microsomes; assay: In vitro metabolic stability in rat liver microsomes; type: in vitro ADME; conditions: NADPH
Protocol: In vitro metabolic stability. Compounds (each 5 μM) were incubated for specified times at 37° C. with rat liver microsomes (1 mg/ml; Sigma-Aldrich) in potassium phosphate buffer containing 1 mM NADPH, as described^14.

[2] = biological target: T1, human wild-type CFTR (Homo sapiens, UniProt P13569); assay: Short-circuit current in FRT cells expressing wild-type human CFTR; type: cell-based; set-up: expressed in transfected cells
Protocol: Short-circuit current was measured in FRT cells stably expressing wild-type human CFTR cultured on porous filters as described. The basolateral solution contained 130 mM NaCl, 2.7 mM KCl, 1.5 mM KH2PO4, 1 mM CaCl2, 0.5 mM MgCl2, 10 mM glucose, and 10 mM Na-HEPES (pH 7.3, 37° C.). In the apical solution 65 mM NaCl was replaced by Na gluconate, and CaCl2 was increased to 2 mM, and the basolateral membrane was permeabilized with 250 μg/ml amphotericin B. Short-circuit current was measured in freshly harvested adult mouse colon at 37° C. using symmetrical Krebs-bicarbonate buffer.
(§1) Fischer rat thyroid (FRT) cells stably expressing wild-type human CFTR were cultured on Snapwell inserts (Corning Costar, Corning N.Y., USA) for short-circuit current (Isc) measurements. After 6-9 days in culture, when the transepithelial resistance was >1000 Ω/cm^2, the inserts were mounted in an Ussing chamber system (World Precision Instruments, Sarasota, Fla., USA). The basolateral solution contained 130 mM NaCl, 2.7 mM KCl, 1.5 mM KH2PO4, 1 mM CaCl2, 0.5 mM MgCl2, 10 mM glucose, and 10 mM Na-HEPES (pH 7.3). In the apical bathing solution, 65 mM NaCl was replaced by Na gluconate, and CaCl2 was increased to 2 mM. Both solutions were bubbled with air and maintained at 37° C. The basolateral membrane was permeabilized with 250 μg/ml amphotericin B (26, 27). Hemichambers were connected to a DVC-1000 voltage clamp via Ag/AgCl electrodes and 3 M KCl agar bridges for Isc recording.
Short-circuit current measurement. Short-circuit current was measured in FRT cells stably expressing wild-type human CFTR cultured on porous filters as described. The basolateral solution contained 130 mM NaCl, 2.7 mM KCl, 1.5 mM KH2PO4, 1 mM CaCl2, 0.5 mM MgCl2, 10 mM glucose, and 10 mM Na-HEPES (pH 7.3, 37° C.). In the apical solution 65 mM NaCl was replaced by Na gluconate, and CaCl2 was increased to 2 mM, and the basolateral membrane was permeabilized with 250 μg/ml amphotericin B. Short-circuit current was measured in freshly harvested adult mouse colon at 37° C. using symmetrical Krebs-bicarbonate buffer.
as §1, with “Short-circuit current. Fischer” for “Fischer”
Short-circuit current measurement. Short-circuit current measurements were done as described. Briefly, Snapwell (Corning Costar, Corning, N.Y.) inserts containing CFTR-expressing FRT cells or human bronchial epithelial cells were mounted in Ussing chambers (Physiological Instruments, San Diego, Calif.). For FRT cells the hemichambers were filled with 5 ml of HCO3^−-buffered solution (basolateral) and half-Cl^− solution (apical), and the basolateral membrane was permeabilized with 250 μg/ml amphotericin B. Symmetrical HCO3^−-buffered solutions were used for human bronchial epithelial cells. Solutions were bubbled with 95% O2/5% CO2 and maintained at 37° C., and short-circuit current was measured on a DVC-1000 voltage clamp (World Precision Instruments Inc., Sarasota, Fla.) using Ag/AgCl electrodes and 3 M KCl agar bridges.

[3] = biological target: T1, human wild-type CFTR; assay: Cell-based plate reader (YFP iodide influx) assay of CFTR function; set-up: expressed in transfected cells; host or cells: Fischer rat thyroid (FRT) cells stably co-expressing YFP-H148Q
Method in brief: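 YFP-quenching assay: I⁻ influx is read for 2 s baseline and 12 s after rapid I⁻ addition. The initial influx rate, from exponential regression, is a linear measure of channel function. Plates carry DMSO vehicle and 20 μM forskolin controls.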

[4] = FRT cells expressing human wild-type CFTR
[5] = FRT cells expressing human wild-type CFTR, read-out: EC50 for CFTR activation (short-circuit current)

T1 sequence (P13569 whole entry): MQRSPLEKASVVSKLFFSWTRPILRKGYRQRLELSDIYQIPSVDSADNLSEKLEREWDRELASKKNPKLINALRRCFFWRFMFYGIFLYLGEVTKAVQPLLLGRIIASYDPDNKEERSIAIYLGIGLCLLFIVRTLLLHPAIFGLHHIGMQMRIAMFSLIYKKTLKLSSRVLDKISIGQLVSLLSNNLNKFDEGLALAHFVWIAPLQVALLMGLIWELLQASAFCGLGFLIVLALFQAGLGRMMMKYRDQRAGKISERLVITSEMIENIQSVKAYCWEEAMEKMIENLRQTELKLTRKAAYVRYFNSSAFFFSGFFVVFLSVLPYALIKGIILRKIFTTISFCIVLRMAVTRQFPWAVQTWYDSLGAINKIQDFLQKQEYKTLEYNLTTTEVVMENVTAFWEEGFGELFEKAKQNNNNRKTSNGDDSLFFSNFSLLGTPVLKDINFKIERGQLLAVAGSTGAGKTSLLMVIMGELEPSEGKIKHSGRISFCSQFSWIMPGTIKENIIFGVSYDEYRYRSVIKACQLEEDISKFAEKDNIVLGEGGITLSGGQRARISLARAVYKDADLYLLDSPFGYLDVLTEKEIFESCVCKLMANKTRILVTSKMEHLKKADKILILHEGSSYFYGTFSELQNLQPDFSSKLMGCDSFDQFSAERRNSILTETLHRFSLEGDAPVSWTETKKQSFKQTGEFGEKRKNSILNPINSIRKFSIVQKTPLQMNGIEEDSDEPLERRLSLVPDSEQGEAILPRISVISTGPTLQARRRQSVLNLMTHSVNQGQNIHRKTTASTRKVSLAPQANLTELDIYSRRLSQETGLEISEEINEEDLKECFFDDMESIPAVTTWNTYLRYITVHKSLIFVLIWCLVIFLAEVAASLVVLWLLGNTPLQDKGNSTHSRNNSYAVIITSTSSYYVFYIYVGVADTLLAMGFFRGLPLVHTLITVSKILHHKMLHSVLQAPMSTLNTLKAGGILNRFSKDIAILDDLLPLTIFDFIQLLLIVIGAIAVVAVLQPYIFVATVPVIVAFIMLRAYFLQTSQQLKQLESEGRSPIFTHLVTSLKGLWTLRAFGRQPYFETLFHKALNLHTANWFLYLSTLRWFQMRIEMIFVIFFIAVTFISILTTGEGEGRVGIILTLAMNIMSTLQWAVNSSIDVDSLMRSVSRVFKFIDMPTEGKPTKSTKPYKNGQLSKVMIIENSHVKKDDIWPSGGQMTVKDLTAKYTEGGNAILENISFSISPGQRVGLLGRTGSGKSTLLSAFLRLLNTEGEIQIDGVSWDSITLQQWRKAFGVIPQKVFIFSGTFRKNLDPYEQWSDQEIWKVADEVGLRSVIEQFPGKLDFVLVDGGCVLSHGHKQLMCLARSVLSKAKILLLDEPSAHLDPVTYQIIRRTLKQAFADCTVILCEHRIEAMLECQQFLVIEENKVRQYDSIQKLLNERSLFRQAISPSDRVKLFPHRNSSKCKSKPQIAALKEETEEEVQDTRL

With `CCN(CC)c1nc(Nc2ccc3ncsc3c2)nc(OC(C(F)(F)F)C(F)(F)F)n1` [6k, N′-(1,3-Benzothiazol-6-yl)-N,N-diethyl-6-[(1,1,1,3,3,3-hexafluoropropan-2-yl)oxy]-1,3,5-triazine-2,4-diamine] the “original compound remaining at 60 min” value ([1]; 5 μM, rat hepatic microsomes) was roughly 60%, the “metabolic stability in hepatic microsomes, in words” value (from here on “metabolic stability”) [1] was “metabolized slowly; also recorded: substantially greater in vitro metabolic stability than 1 or 12” and the “CFTR activation (short-circuit current), in words” value (“CFTR activation … in words” below) [2, 4] was “full CFTR activation”. The EC50 [2, 5] was 30 nM, the EC50 [3] was roughly 50 nM and the “fold increase in potency over benzoxazole 6j” value [3] was roughly 3 fold. The EC50 ([3]; bicyclic aniline analogs, read-out: EC50) was 50 nM.

With `Nc1ccc([N+](=O)[O-])cc1-c1nc2ccccc2n(Cc2ccccc2)c1=O` [CFTRact-J027, 3-(2-amino-5-nitrophenyl)-1-benzylquinoxalin-2(1H)-one] the “activation of CFTR at 3 μM” value ([2]; 3 μM, wild-type CFTR, FRT cells) was “nearly full activation” and the “CFTR activation … in words” value [2, 4] was “fully activated CFTR chloride conductance”.

`CCN(CC)c1nc(Nc2ccccc2)nc(OC(C(F)(F)F)C(F)(F)F)n1` [CFTRact-K089, N,N-Diethyl-6-[(1,1,1,3,3,3-hexafluoropropan-2-yl)oxy]-N′-phenyl-1,3,5-triazine-2,4-diamine] was tested, and the “metabolic stability” value [1] was “metabolized rapidly”, the “CFTR activation, Vmax” value ([2]; 100% = 20 μM forskolin) was roughly 50 % Vmax and the “CFTR activation … in words” value [2, 4] was “fully activated CFTR”. For the same compound, the EC50 [2, 5] was roughly 250 nM, the EC50 ([3]; N,N-diethyl-N′-aryl-1,3,5-triazine diamine analogs, read-out: EC50 for CFTR activation) was 240 nM and the “% Activation” value ([3]; commercial analogs, FRT cells with YFP and wildtype CFTR, 125 nM forskolin) was 111%. The EC50 ([3]; commercial analogs, read-out: EC50 (full-dose response assay, compounds >80% activation)) was 250 nM.

`CC(C)(C)c1cc(C(C)(C)C)c(NC(=O)c2c[nH]c3ccccc3c2=O)cc1O` [VX-770, reference compound] was tested, and the “CFTR activation … in words” value [2, 4] was “relatively little activity; also recorded: relatively weak activity”.

`CNc1nc(Nc2ccccc2)nc(OCC(F)(F)C(F)F)n1` [compound 12, N-methyl-N′-phenyl-6-(2,2,3,3-tetrafluoropropoxy)-1,3,5-triazine-2,4-diamine] was tested, and the “metabolic stability” value [1] was “rapidly metabolized by hepatic microsomes”, the EC50 [2] was roughly 30 nM and the “CFTR activation … in words” value [2, 4] was “fully activated CFTR chloride conductance; also recorded: full CFTR activation”. For the same compound, the EC50 [2, 5] was 31 nM, the “fold better EC50 than diethylamine analog 6a” value [3] was roughly 50 fold and the “fold more potent than hexafluoropropanol analog 11” value [3] was roughly 3 fold. The EC50 ([3]; N-methyl-N′-phenyl-1,3,5-triazine diamine analogs, read-out: EC50) was 40 nM.
